Source: patent publication US20240140958A1, “FUSED QUADRACYCLIC COMPOUNDS, COMPOSITIONS AND USES THEREOF” (Tabomedex Biosciences, Inc., priority 2021, published 2024)
pIC50: −log10 of the molar value.

Columns and labels:
THP-1 cells = assay: THP-1 cell assay: LPS-stimulated pSer78-Hsp27 ELISA; type: cell-based; settings: Homo sapiens, PMA-differentiated THP-1 cells, compound 60 min before 20 ng/mL LPS for 30 min
From the text: Materials and Reagents for Measuring Activity in THP-1 Cells: • 1) THP-1 cells (Cell bank of Shanghai) • 2) PMA (Sigma, Cat.No. P1585) • 3) LPS (Sigma, Cat.No. L4516) • 4) 96-well tissue-culture treated plate (Grenier, Cat.No. 655180) • 5) FBS (Thermofisher, Cat.No. 10100147) • 6) Complete EDTA-free protease inhibitor Cocktail (Roche, Cat.No. 4693132001) • 7) PhosSTOP (Roche, Cat.No. 4906845001) • 8) Phosphor-Hsp27 (Ser78) Sandwich Elisa kit (CST, Cat.No. 7295)
Cell Assay Procedure: • 1) Day 0: THP-1 cells are seeded at 50K/well in complete media (1640+10% FBS+50 μM β-ME)+20 ng/mL PMA in 96-well plate • 2) Day 1: PMA containing media is removed after 24 h incubation (37° C./5% CO2), and replaced with complete growth media. Cells are incubated an additional 48 h to recover. • 3) Day 3: Cells are incubated with or without compounds at indicated concentrations for 60 min, prior to addition of 20 ng/mL LPS. Cells are stimulated for 30 min with LPS, washed 1× with ice cold PBS, lysed on ice in Lysis buffer provided in ELISA kit with Roche protease & phosphatase inhibitors. Extracts are clarified by refrigerated centrifugation & stored at −80° C. until pHsp27/total Hsp27 ELISAs • 4) Day 3 or Day 4: Cell Signaling Technology ELISA is run for pSer78-Hsp27 on lysates diluted to approximately 2.5 μg/well. • 5) The absorbance at 450 nm was read in a SpectraMax plus plate reader (Molecular Devices). Data was processed using GraphPad prism 8.0.

[1] = biological target: T1, MAPKAPK2 Recombinant Human Protein (Homo sapiens, UniProt P49137); assay: MK2 kinase assay (Z'-LYTE kinase assay kit); settings: inhibition of MK2 biochemical activity; 90 min incubation at room temperature
T1 construct: purchased ThermoFisher pv3317
T1 sequence (P49137 whole entry): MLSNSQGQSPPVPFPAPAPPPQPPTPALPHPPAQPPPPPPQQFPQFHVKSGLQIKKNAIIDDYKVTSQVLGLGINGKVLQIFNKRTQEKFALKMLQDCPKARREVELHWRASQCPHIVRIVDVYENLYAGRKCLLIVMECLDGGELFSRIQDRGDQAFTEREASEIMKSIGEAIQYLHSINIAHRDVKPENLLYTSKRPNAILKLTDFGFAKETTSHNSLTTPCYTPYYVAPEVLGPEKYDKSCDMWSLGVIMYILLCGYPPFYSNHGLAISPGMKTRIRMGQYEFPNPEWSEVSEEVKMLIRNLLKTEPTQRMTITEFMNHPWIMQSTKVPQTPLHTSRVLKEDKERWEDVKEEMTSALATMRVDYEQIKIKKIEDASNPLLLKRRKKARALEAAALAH
Method in brief: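 Z'-LYTE FRET assay with recombinant human MAPKAPK2 and peptide substrate; compound and ATP added, kinase reaction 90 min at room temperature, then development 60 min before stop. Coumarin (445 nm) and fluorescein (520 nm) emissions read at 400 nm excitation.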

pIC50 (THP-1 cells)	pIC50 [1]	Compound
6.00 to 6.30	> 7.30	CN1CCC(NC(=O)c2ccc3c(c2)Cn2cc(-c4ccc(C#N)cc4)cc2-c2nccn2-3)C1 (centres unmarked) [Example 105]
6.70 to 7.00	> 7.30	CC(C)NC[C@H]1CC(=O)N(c2ccc3c(c2)Cn2cc(-c4ccc(C#N)cc4)cc2-c2nccn2-3)C1 [Example 12]
7.00 to 7.30	> 7.30	N#Cc1ccc(-c2cc3n(c2)Cc2cc(N4C[C@@H](CN5CC(O)C5)CC4=O)ccc2-n2ccnc2-3)cc1 [Example 29]
> 7.30	> 7.30	CN(C)CC1CCN(c2ccc3c(c2)Cn2cc(-c4ccc(C#N)cc4)cc2-c2nccn2-3)C1=O (centres unmarked) [Example 34, 4-(7-(3-((Dimethylamino)methyl)-2-oxopyrrolidin-1-yl)-9H-benzo[e]imidazo [2,1-c]pyrrolo[1,2-a][1,4]diazepin-12-yl)benzonitrile]
6.00 to 6.30	> 7.30	N#Cc1ccc(-c2cc3n(c2)Cc2cc(N4C[C@@H](CN5CC(F)C5)CC4=O)ccc2-n2ccnc2-3)cc1 [Example 28]
7.00 to 7.30	> 7.30	CC1(C)CCN1C[C@H]1CC(=O)N(c2ccc3c(c2)Cn2cc(-c4ccc(C#N)cc4)cc2-c2nccn2-3)C1 [Example 19]
> 7.30	> 7.30	CN1CC2(CCN(c3ccc4c(c3)Cn3cc(-c5ccc(C#N)cc5)cc3-c3nccn3-4)C2=O)C1 [Example 24, 4-(7-(2-Methyl-5-oxo-2,6-diazaspiro[3.4]octan-6-yl)-911-benzo[e]imidazo [2,1-c]pyrrolo[1,2-a][1,4]diazepin-12-yl)benzonitrile]
> 7.30	> 7.30	CN(C)CC[C@@H]1CCN(c2ccc3c(c2)Cn2cc(-c4ccc(C#N)cc4)cc2-c2nccn2-3)C1=O (single isomer, unassigned) [Example 42]
> 7.30	> 7.30	CN(C)CCN1CCN(c2ccc3c(c2)Cn2cc(-c4ccc(C#N)cc4)cc2-c2nccn2-3)C1=O [Example 57, 4-(7-(3-(2-(Dimethylamino)ethyl)-2-oxoimidazolidin-1-yl)-9H-benzo[e]imidazo[2,1-c]pyrrolo[1,2-a][1,4]diazepin-12-yl)benzonitrile]
6.40 to 6.52	7.00 to 7.30	CN(C)CC1CC(=O)N(c2cc3c(cc2F)-n2ccnc2-c2cc(-c4ccc(C#N)cc4)cn2C3)C1 (stereo in doubt) [Example 91]
5.82 to 6.00	> 7.30	N#Cc1ccc(-c2cc3n(c2)Cc2cc(N4CC5(CNC5)CC4=O)ccc2-n2ccnc2-3)cc1 [Example 22, 4-(7-(7-Oxo-2,6-diazaspiro[3.4]octan-6-yl)-9H-benzo[e]imidazo[2,1-c]pyrrolo [1,2-a][1,4]diazepin-12-yl)benzonitrile]
6.52 to 6.70	7.00 to 7.30	N#Cc1ccc(-c2cc3n(c2)Cc2cc(N4C[C@H]5CNC[C@H]5C4=O)ccc2-n2ccnc2-3)cc1 (relative stereo) [Example 30, cis-4-(7-(1-oxohexahydropyrrolo[3,4-c]pyrrol-2(1H)-yl)-9H-benzo[e]imidazo [2,1-c]pyrrolo[1,2-a][1,4]diazepin-12-yl)benzonitrile]
7.00 to 7.30	7.00 to 7.30	CN(CCO)CC1CCN(c2ccc3c(c2)Cn2cc(-c4ccc(C#N)cc4)cc2-c2nccn2-3)C1=O (centres unmarked) [Example 37]
> 7.30	> 7.30	CN(C)C[C@@H]1CN(c2ccc3c(c2)Cn2cc(-c4ccc(C#N)cc4)cc2-c2nccn2-3)C(=O)O1 [Example 1, (R)-4-(7-(5-((Dimethylamino)methyl)-2-oxooxazolidin-3-yl)-9H-benzo [e]imidazo[2,1-c]pyrrolo[1,2-a][1,4]diazepin-12-yl)benzonitrile]
< 6.00	> 7.30	N#Cc1ccc(-c2cc3n(c2)Cc2cc(N4CC(=O)N(CC5CNC5)C4=O)ccc2-n2ccnc2-3)cc1 [Example 66]
> 7.30	> 7.30	CN(C)C[C@H]1CC(=O)N(c2ccc3c(c2)Cn2cc(-c4ccc(C#N)cc4)cc2-c2nccn2-3)C1 [Example 7, (R)-4-(7-(4-((Dimethylamino)methyl)-2-oxopyrrolidin-1-yl)-9H-benzo[e]imidazo[2,1-c]pyrrolo[1,2-a][1,4]diazepin-12-yl)benzonitrile]
7.00 to 7.30	> 7.30	CN(C)[C@H]1C[C@@H](N2CCN(c3ccc4c(c3)Cn3cc(-c5ccc(C#N)cc5)cc3-c3nccn3-4)C2=O)C1 [Example 59]

pIC50 (THP-1 cells)	pIC50 [1]	Compound
6.70 to 7.00	> 7.30	CN(C)CC1CC12CCN(c1ccc3c(c1)Cn1cc(-c4ccc(C#N)cc4)cc1-c1nccn1-3)C2=O (centres unmarked) [Example 47, 4-(7-(1-((Dimethylamino)methyl)-4-oxo-5-azaspiro[2.4]heptan-5-yl)-9H-benzo[e]imidazo[2,1-c]pyrrolo[1,2-a][1,4]diazepin-12-yl)benzonitrile]
6.52 to 6.70	> 7.30	CN(C)C[C@H]1[C@@H]2CN(c3ccc4c(c3)Cn3cc(-c5ccc(C#N)cc5)cc3-c3nccn3-4)C(=O)[C@H]12 [Example 46]
6.00 to 6.30	> 7.30	CN1CC(NC(=O)c2ccc3c(c2)Cn2cc(-c4ccc(C#N)cc4)cc2-c2nccn2-3)C1 [Example 119, 2-(4-Cyanophenyl)-N-(1-methylazetidin-3-yl)-9H-benzo[e]imidazo[2,1-c]pyrrolo [1,2-a][1,4]diazepine-7-carboxamide]
> 7.30	> 7.30	CC(C)(N)[C@@H]1CN(c2ccc3c(c2)Cn2cc(-c4ccc(C#N)cc4)cc2-c2nccn2-3)C(=O)O1 (single isomer, unassigned) [Example 21]
6.00 to 6.30	> 7.30	CC(C)N1CC(NC(=O)c2ccc3c(c2)Cn2cc(-c4ccc(C#N)cc4)cc2-c2nccn2-3)C1 [Example 128]
> 7.30	> 7.30	N#Cc1ccc(-c2cc3n(c2)Cc2cc(N4C[C@@H](CNC5CC5)CC4=O)ccc2-n2ccnc2-3)cc1 [Example 15]
6.40 to 6.52	> 7.30	N#Cc1ccc(-c2cc3n(c2)Cc2cc(N4C[C@@H](CN)CC4=O)ccc2-n2ccnc2-3)cc1 [Example 8]
6.30 to 6.40	7.00 to 7.30	N#Cc1ccc(-c2cc3n(c2)Cc2cc(N4C[C@@H](CNC5(CO)CC5)CC4=O)ccc2-n2ccnc2-3)cc1 [Example 16]
5.82 to 6.00	> 7.30	N#Cc1ccc(-c2cc3n(c2)Cc2cc(NC(=O)C4CCNC4)ccc2-n2ccnc2-3)cc1 (centres unmarked) [Example 76, N-(12-(4-Cyanophenyl)-9H-benzo[e]imidazo[2,1-c]pyrrolo[1,2-a][1,4]diazepin-7-yl)pyrrolidine-3-carboxamide]
6.52 to 6.70	7.00 to 7.30	CN(C)C[C@H]1C[C@@]12CCN(c1ccc3c(c1)Cn1cc(-c4ccc(C#N)cc4)cc1-c1nccn1-3)C2=O [Example 48, 4-(7-((1S,3R)-1-((dimethylamino)methyl)-4-oxo-5-azaspiro[2.4]heptan-5-yl)-9H-benzo[e]imidazo[2,1-c]pyrrolo[1,2-a][1,4]diazepin-12-yl)benzonitrile]
> 7.30	> 7.30	CN(C)C1CCN(C(=O)Nc2ccc3c(c2)Cn2cc(-c4ccc(C#N)cc4)cc2-c2nccn2-3)C1 (centres unmarked) [Example 72]
7.00 to 7.30	> 7.30	CN(CCO)C[C@H]1CCN(c2ccc3c(c2)Cn2cc(-c4ccc(F)cc4)cc2-c2nccn2-3)C1=O [Example 90, (R)-1-(12-(4-Fluorophenyl)-9H-benzo[e]imidazo[2,1-c]pyrrolo[1,2-a][1,4]diazepin-7-yl)-3-(((2-hydroxyethyl)(methyl)amino)methyl)pyrrolidin-2-one]
6.70 to 7.00	7.00 to 7.30	CN(C)CCNC(=O)c1ccc2c(c1)Cn1cc(-c3ccc(C#N)cc3)cc1-c1nccn1-2 [Example 101, 12-(4-Cyanophenyl)-N-(2-(dimethylamino)ethyl)-9H-benzo[e]imidazo[2,1-c]pyrrolo[1,2-a][1,4]diazepine-7-carboxamide]
6.30 to 6.40	> 7.30	CN(C)CC1(C)CC(=O)N(c2ccc3c(c2)Cn2cc(-c4ccc(C#N)cc4)cc2-c2nccn2-3)C1 (centres unmarked) [Example 33, 4-(7-(4-((Dimethylamino)methyl)-4-methyl-2-oxopyrrolidin-1-yl)-9H-benzo [e]imidazo[2,1-c]pyrrolo[1,2-a][1,4]diazepin-12-yl)benzonitrile]
> 7.30	> 7.30	N#Cc1ccc(-c2cc3n(c2)Cc2cc(N4C[C@@H](CN5CCC5)OC4=O)ccc2-n2ccnc2-3)cc1 [Example 5]
6.70 to 7.00	7.00 to 7.30	CN(CCO)C[C@H]1CC(=O)N(c2ccc3c(c2)Cn2cc(-c4ccc(C#N)cc4)cc2-c2nccn2-3)C1 [Example 11]
7.00 to 7.30	> 7.30	N#Cc1ccc(-c2cc3n(c2)Cc2cc(C(=O)N4CC(C#N)C4)ccc2-n2ccnc2-3)cc1 [Example 110]
